The test system of data set [1] is infected S. aureus thermal burn. The data set can be described thus: Infected thermal burn model, guiney pigs. The settings on record: for Necrosis area (cm^2) / Thermal burn area (cm^2): 2.5% solution or 5% suspension. The data set is classed as in vivo. On the procedure: The experiments were conducted using adult rabbits “Chinchilla” (males, weight 3-3.5 kg) and random bred guiney pigs (males, weight 0.8-0.9 kg) according to the “Regulations for test animals use” (USSR Ministry of health order supplement #755 from 12.08. 1977). There have been made several skin integument burnings with a warmed up on the burner flame metallic applicator on the left and right side of the depilated coupling area (1.5% novocain solution was used for local anesthesia) by attaching it to the skin and holding for 40 seconds. In the center of the ambustial area there has been intracutaneously inserted Staphylococcus aureus (ATCC No 25923 F-49) daily suspension with a 0.1 ml volume in a 10^10 CFU/ml dosage. Each day in 13 days period (starting with the very first day) the burnings of the animals control group was bathed with a sterile normal saline solution, dried and covered with a sterile tissue fixed with a plaster. The burnings of the test animals were irrigated with a sterile 2.5% fosfomycin solution or sterile 5% pharmaceutical composition suspension, after that they were dried and covered with a sterile tissue fixed with a plaster. The burnings condition dynamics was monitored during 14 days. The medics measured the burning wound surface and necrosis area in the center of the burning wound. You may see the results in the table No 4. The statistical data processing has been made with a program Statistica 6.0. The experimental data are presented as median (Me), Low and High quartile (LQ-HQ), the difference authenticity has been calculated using Student t-criterion with p<0.05 values.

A short description of data set [2]: Fosfomycin sorption by BHSiO2 particles. The format is physicochemical. The text has this:
Fosfomycin sorption rate by BHSiO2 particles was 20-25%.

The nature of data set [3]: Incision model, guiney pigs, external application of powder. The data set is classed as in vivo. The settings on record: for Incision length (cm) Me: powder form, external application daily. Here is the method:
(§1) The experiments were conducted using adult rabbits “Chinchilla” (males, weight 3-3.5 kg) and random bred guiney pigs (males, weight 0.8-0.9 kg) according to the “Regulations for test animals use” (USSR Ministry of health order supplement #755 from 12.08. 1977). There have been made several incisions with a sterile scalpel on the left and right side of the depilated coupling area (1.5% novocain solution was used for local anesthesia); incision 2 cm long and 0.8 cm deep with muscular layer seizure for guiney pigs and 2 cm long and 1 cm deep with muscular layer seizure for rabbits. Each day in 8 days period (starting with the very first day) the wounds of the animals control group was bathed with a sterile normal saline solution, were covered with a sterile tissue fixed with a plaster. The wounds of the test group animals were bathed with a sterile saline solution, then dried and then dusted with fosfomycin sterile powder uniform layer (2-3 mm) or a same layer pharmaceutical composition (for guiney pigs), the wounds of the test rabbits were irrigated with a sterile 2.5% fosfomycin solution or sterile 5% pharmaceutical composition suspension, after that they were dried and covered with a sterile tissue fixed with a plaster. The regenerative process dynamics was monitored during 9 days. The medics measured the length of the wound open area and made a visual evaluation of wound edges and walls, the presence and character of the exudates, necrosis presence. The test results can be seen in Tables No 2 and No 3. The statistical data processing has been made with a program Statistica 6.0. The experimental data are presented as median (Me), Low and High quartile (LQ-HQ), the difference authenticity has been calculated using Student t-criterion with p<0.05 values.

Data set [4] can be described thus: Incision model, rabbits, external application of solution/suspension. The format is in vivo. Particulars: for Incision length (cm) Me: 2.5% fosfomycin solution or 5% composition suspension. Here is the method:
as §1

The mark [5] stands for this setting: 2.5% solution / 5% water suspension.

With `C[C@@H]1O[C@@H]1P(=O)(O)O` [Fosfomycin, fosfomycin], in data set [1] (setting [5]), the “Infected S. aureus thermal burn regeneration process versus control group” value was “authentically increase infected S. aureus thermal burn regeneration process comparing to the control group”. The “Necrosis area (cm^2)” value in data set [1] (Day 2) worked out at 0.0 cm^2; in data set [1] (Day 6), 0.3 cm^2; in data set [1] (Day 9), 0.25 cm^2; in data set [1] (Day 14), 0.2 cm^2. Moreover, the “Thermal burn area (cm^2)” value in data set [1] (Day 2) was 1.2 cm^2; in data set [1] (Day 6) it was 0.8 cm^2; in data set [1] (Day 9), 0.7 cm^2; in data set [1] (Day 14), 0.4 cm^2. Besides, the “Fosfomycin sorption rate by BHSiO2 particles” value in data set [2] is reported as 20-25%. The “Incision length (cm) Me” value is given as 0.9 cm in data set [3] (Day 2); 0.5 cm in data set [3] (Day 6); 0.3 cm in data set [3] (Day 9); 0.5 cm in data set [4] (Day 2); 0.4 cm in data set [4] (Day 6); 0.25 cm in data set [4] (Day 9). Moreover, the “Incisions regeneration process versus control group” value in data set [3] (powder forms) and in data set [4] (setting [5]) was “authentically increase incisions regeneration process comparing to the control group” in each case.

Values taken from patent US20130171198A1, “ANTIMICROBIAL AND VULNERARY ACTION PHARMACEUTICAL COMPOSITION FOR EXTERNAL APPLICATION AND ITS PRODUCTION PROCESS” (priority 2010, published 2013).
